Test results published in publication PMC10385824, “Antiproliferative and Tubulin-Destabilising Effects of 3-(Prop-1-en-2-yl)azetidin-2-Ones and Related Compounds in MCF-7 and MDA-MB-231 Breast Cancer Cells” (Pharmaceuticals, 2023).
Like-named read-outs stand apart in the source and are kept apart here. Values belong to the molecule of their own block, whether it stands above or below them.

What was measured:
[1] = HPLC stability study in phosphate buffers; assay type: physicochemical; settings: for compound remaining: all pH values (4, 7.4, 9), after 11 days; for stability in words: over the pH range studied; for remaining at 264 h, 14.6 µg/mL: phosphate buffer, study over 264 h
[2] = HPLC stability under degradation conditions (acid, alkali, heat, light, oxidation); settings: for remaining at 4 h / remaining at 312 h, 0.5 mg/mL / remaining at 5 h, 0.5 mg/mL: % Remaining; for remaining at 6 h: 30% H2O2 added to stock solution, Hydrogen peroxide (30 % H2O2, 0.2 mL), 20 °C; for remaining at 312 h, 0.5 mg/mL: solution in acetonitrile:water 80:20, daylight, Daylight (acetonitrile (80%):water (20%) 13 days); for remaining at 5 h, 0.5 mg/mL: stock solution in acetonitrile:water 80:20, heated, 80 °C (heating block, 5 h)
[3] = HPLC stability study in plasma; assay type: in vitro ADME, human; settings: human, buffered plasma (plasma:buffer 1:9); Plasma; study over 264 h
Description: Analytical high-performance liquid chromatography (HPLC) stability studies were performed as follows using Symmetry® column (C18, 5 µm, 4.6 × 150 mm), Waters 2487 Dual Wavelength Absorbance detector, Waters 1525 binary HPLC pump and Waters 717 plus Autosampler (Waters Corporation, Milford, MA, USA) with detection at 254 nm as previously described. Samples were analysed using mobile phase acetonitrile (80%): water (20%), flow rate (1 mL/min) over 10 min. […] First, 30 µL of compound stock solution was diluted with appropriate buffer (1 mL); sample was shaken and injected immediately. Samples were withdrawn and analysed at the following time points: t = 0 min, 5 min, 30 min, 60 min, 90 min, 120 min, 24 h and 48 h. (ii) Thermal stability: Compound stock solution (1 mL) was placed in a glass vial on a heating block for 4 h at 60 °C. The sample was then cooled, diluted (acetonitrile) and analysed. (ii) Oxidising conditions: H2O2 (3%, 0.2 mL) was added to compound stock solution (0.8 mL). The vial was vortexed and retained at 20 °C, and the sample was analysed at 60, 120 180 and 240 min. (iv) Acidic conditions: HCl (0.1 M, 0.2 mL) was added to stock solutions (0.8 mL). The vial was mixed by vortex and retained at 20 °C. A sample was neutralised with NaOH (0.1 M, 0.2 mL) at 60, 120, 180 and 240 min, followed by HPLC analysis. (v) Alkaline conditions: NaOH (0.1 M, 0.2 mL) was added to stock solution (0.8 mL) of the compound in a vial. The vial was mixed by vortex and retained at 20 °C. A sample was neutralised with HCl (0.1 M, 0.2 mL) at 60, 120, 180 and 240 min followed by HPLC analysis. (vi) Photostability study: Compounds (stock solution, 1 mL) were placed in a vial, exposed to UV light for 4 h and then analysed by HPLC as above. Stability studies in plasma: Approval for this study was obtained from the School of Pharmacy and Pharmaceutical Sciences Trinity College Dublin Research Ethics Committee (2020–06-01-MS). Following informed consent, blood was withdrawn from healthy volunteers, and plasma was obtained by centrifugation and kept at −20 °C until further use. […] A sample (250 µL) was then added to the Eppendorf tube containing ZnSO4.7H2O solution (500 µL) (2% w/v ZnSO4 solution in acetonitrile:water, 1:1). The samples were centrifuged (10,000 rpm, 3 min), filtered (0.2 micron filter) and analysed by HPLC as above. Further samples were taken at one-hour intervals.

[4] = system: MCF-7 human breast cancer cells; assay: cells
[5] = system: MCF-7 human breast cancer cells; settings: for IC50: read-out: Antiproliferative Activity IC50, 72 h, eight concentrations (0.001–50 mM [sic]), mean ± SEM, Table 5; for IC50 / antiproliferative activity in words: MCF-7
[6] = system: MDA-MB-231 human breast cancer cells; assay: Alamar Blue cell viability (antiproliferative) assay; assay type: cell-based; settings: 72 h, eight concentrations 0.001-50 μM, mean ± SEM, read-out: Antiproliferative Activity IC50
[7] = system: NCI 60 human cancer cell line panel; assay: NCI 60 cell line screen (SRB), panel values
[8] = system: purified bovine brain tubulin; assay: Tubulin polymerization assay (light scattering, BK006 kit); assay type: biochemical; settings: compound at 10 μM
Description: Tubulin polymerization was monitored using the BK006 kit obtained from Cytoskeleton Inc. (Denver, CO, USA). The values reported represent the average values determined from two independent assays. Purified bovine brain tubulin (>99%, 3 mg/mL) in buffer containing PIPES (80 mM, pH 6.9), EGTA (0.5 mM), MgCl2 (2 mM), GTP (1 mM) and glycerol (10%) was incubated at 37 °C in vehicle (1% DMSO or EtOH (v/v) in dH2O) or with compounds 9h, 9q, 9s, 10h, 10p, 10r, 11h, 11p, 11r, 17f (all at 10 µM concentration); CA-4 (10 μM) was used as control. In this assay, light scattering is related to the concentration of polymerised microtubules produced. Tubulin assembly was monitored turbidimetrically at 340 nm at 37 °C in a Spectramax 340 PC spectrophotometer (Molecular Devices, Sunnyvale, CA, USA).

[9] = system: MDA-MB-231/ATCC; assay: NCI-60 SRB screen, breast cancer; assay type: cell-based, human; settings: Homo sapiens; MDA-MB-231; obtained from NCI; five concentrations 0.01–100 μM; 48 h; read-out: Antiproliferative Activity IC50
[10] = 1M HCl added to stock solution, 1M HCl (0.1 mL, 20 °C, 4h)
[11] = 1M HCl added to stock solution, 1M HCl (0.2 mL, 50 °C, 4h)
[12] = 1M NaOH added to stock solution, 1M NaOH (0.1 mL, 20 °C, 4h)
[13] = MCF7, read-out: Antiproliferative Activity IC50, MCF-7, eight concentrations 0.001–50 μM, mean ± SEM, Table 3
[14] = MCF7, 72 h, read-out: Antiproliferative Activity IC50, MCF-7, 72 h, eight concentrations 1–50 μM, mean ± SEM, Table 2

- compound remaining [1]: 22–26%
- stability in words [1]: poor stability
- remaining at 264 h, 14.6 µg/mL ([1]; pH 4.0): 26%
- remaining at 264 h, 14.6 µg/mL ([1]; pH 7.4): 25%
- remaining at 264 h, 14.6 µg/mL ([1]; pH 9.0): 22%
- melting point: 108 to 110 °C
- remaining at 4 h [2, 10]: 99.2%
- remaining at 4 h [2, 11]: 98.7%
- remaining at 4 h [2, 12]: 97.8%
- remaining at 4 h ([2]; 1M NaOH added to stock solution, 1M NaOH (0.2 mL, 50 °C, 4h)): 97.8%
- remaining at 6 h [2]: 92%
- remaining at 312 h, 0.5 mg/mL [2]: 100%
- remaining at 5 h, 0.5 mg/mL [2]: 100%
- remaining at 264 h, 41.3 µg/mL [3]: 90%
- IC50 [4, 13]: 619 ± 70 nM
SMILES: C=CCC1C(=O)N(c2cc(OC)c(OC)c(OC)c2)C1c1ccc(OC)c([N+](=O)[O-])c1 (stereo not drawn) [10q, 3-Allyl-4-(4-methoxy-3-nitrophenyl)-1-(3,4,5-trimethoxyphenyl)azetidin-2-one]

- IC50 [5]: 142000 ± 20300 nM
SMILES: COC(=O)C1=C(C(=O)OC)C(C2C(=O)N(c3cc(OC)c(OC)c(OC)c3)C2c2cccc3ccccc23)CC=C1 (stereo not drawn) [22a, Dimethyl-6-(1-(3,4,5-trimethoxyphenyl)-2-(naphthalen-1-yl)-4-oxoazetidin-3-yl)cyclohexa-1,3-diene-1,2-dicarboxylate]

- IC50 [5]: 9690 ± 1020 nM
SMILES: COC(=O)C1=C(C(=O)OC)C(C2C(=O)N(c3cc(OC)c(OC)c(OC)c3)C2c2cccc3ccccc23)CC=C1 (stereo not drawn) [22b, Dimethyl-6-(1-(3,4,5-trimethoxyphenyl)-2-(naphthalen-1-yl)-4-oxoazetidin-3-yl)cyclohexa-1,3-diene-1,2-dicarboxylate]

- melting point: 128 to 130 °C
- IC50 [4, 14]: 1160 ± 120 nM
SMILES: C=C(C)C1C(=O)N(c2ccc(OC)cc2)C1c1cc(OC)c(OC)c(OC)c1 (stereo not drawn) [9v, 1-(4-Methoxyphenyl)-3-(prop-1-en-2-yl)-4-(3,4,5-trimethoxyphenyl)azetidin-2-one]
- antiproliferative activity in words [5]: minimal

- melting point: 113 to 115 °C
- IC50 [4, 14]: 131 ± 40 nM
SMILES: C=C(C)C1C(=O)N(c2ccc(SC)cc2)C1c1cc(OC)c(OC)c(OC)c1 (stereo not drawn) [9t, 1-(4-(Methylthio)phenyl)-3-(prop-1-en-2-yl)-4-(3,4,5-trimethoxyphenyl)azetidin-2-one]
- antiproliferative activity in words [5]: minimal

- IC50 [4, 14]: 5950 ± 920 nM
SMILES: C=C(C)C1C(=O)N(c2cc(OC)c(OC)c(OC)c2)C1c1ccc(N(C)C)cc1 (stereo not drawn) [9e, 4-(4-Dimethylaminophenyl)-1-(3,4,5-trimethoxyphenyl)-3-(prop-1-en-2-yl)azetidine-2-one]
- antiproliferative activity in words [5]: sub-micromolar

- melting point: 137 to 138 °C
- IC50 [4, 14]: 630 ± 70 nM
SMILES: C=C(C)C1C(=O)N(c2cc(OC)c(OC)c(OC)c2)C1c1ccc(Cl)cc1 (stereo not drawn) [9b, 4-(4-Chlorophenyl)-1-(3,4,5-trimethoxyphenyl)-3-(prop-1-en-2-yl)azetidine-2-one]
- antiproliferative activity in words [5]: sub-micromolar

- melting point: 106 to 108 °C
SMILES: C=C(C)C1C(=O)N(c2ccc(OCC)cc2)C1c1cc(OC)c(OC)c(OC)c1 (stereo not drawn) [9u, 1-(4-Ethoxyphenyl)-3-(prop-1-en-2-yl)-4-(3,4,5-trimethoxyphenyl)azetidin-2-one]
- antiproliferative activity in words [5]: minimal

- melting point: 99 to 100 °C
- IC50 [4, 14]: 272000 ± 26400 nM
SMILES: C=C(C)C1C(=O)N(c2cc(OC)c(OC)c(OC)c2)C1c1ccc(SC)cc1 (stereo not drawn) [9o, 4-(4-(Methylthio)phenyl)-3-(prop-1-en-2-yl)-1-(3,4,5-trimethoxyphenyl)azetidin-2-one]
- antiproliferative activity in words [5]: sub-micromolar

- melting point: 102 to 104 °C
- IC50 [6]: 246 ± 17 nM
SMILES: C=C(C)C1C(=O)N(c2cc(OC)c(OC)c(OC)c2)C1c1ccc(C)cc1 (stereo not drawn) [9g, 4-p-Tolyl-1-(3,4,5-trimethoxyphenyl)-3-(prop-1-en-2-yl)azetidine-2-one]
- antiproliferative activity in words [5]: sub-micromolar

- melting point: 130 to 131 °C
SMILES: C=C(C)C1C(=O)N(c2cc(OC)c(OC)c(OC)c2)C1c1ccc(Br)cc1 (stereo not drawn) [9c, 4-(4-Bromophenyl)-1-(3,4,5-trimethoxyphenyl)-3-(prop-1-en-2-yl)azetidine-2-one]
- antiproliferative activity in words [5]: sub-micromolar

- compound remaining [1]: 24–41%
- stability in words [1]: poor stability
- remaining at 264 h, 14.6 µg/mL ([1]; pH 4.0): 28%
- remaining at 264 h, 14.6 µg/mL ([1]; pH 7.4): 41%
- remaining at 264 h, 14.6 µg/mL ([1]; pH 9.0): 24%
- remaining at 4 h [2, 10]: 97.5%
- remaining at 4 h [2, 11]: 99.6%
- remaining at 4 h [2, 12]: 96%
- remaining at 6 h [2]: 100%
- remaining at 312 h, 0.5 mg/mL [2]: 100%
- remaining at 5 h, 0.5 mg/mL [2]: 100%
- remaining at 264 h, 41.3 µg/mL [3]: 100%
- IC50 [4, 13]: 35 ± 5 nM
SMILES: C=CCC1C(=O)N(c2cc(OC)c(OC)c(OC)c2)C1c1ccc(OC)cc1 (stereo not drawn) [10h, 3-Allyl-4-(4-methoxyphenyl)-1-(3,4,5-trimethoxyphenyl)azetidin-2-one]
- GI50 ([7]; Homo sapiens, 60 cell, read-out: Mean GI50, mean over all NCI 60 cell lines): < 91.2 nM
- CC50 ([7]; Homo sapiens, 60 cell, read-out: Mean LC50): 81300 nM
- IC (TGI (total growth inhibition)) ([7]; Homo sapiens, 60 cell, read-out: Mean TGI): 17400 nM
- GI50 ([7]; read-out: Mean GI50, mean over all NCI 60 cell lines): 75.9 nM
- Vmax ([8]; 37 °C, 340 nm): 0.0056 mOD/min
- Fold Reduction in Vmax ([8]; relative to vehicle): 2.5
- IC50 [9]: 120 nM

- melting point: 100 to 102 °C
- IC50 [6]: 171 ± 11 nM
- IC50 ([4]; MCF7, MCF-7): 81 nM
SMILES: C=C(C)C1C(=O)N(c2cc(OC)c(OC)c(OC)c2)C1c1ccc(OCC)cc1 (stereo not drawn) [9i, 4-(4-Ethoxyphenyl)-1-(3,4,5-trimethoxyphenyl)-3-(prop-1-en-2-yl)azetidin-2-one]

- melting point: 123 to 124 °C
- IC50 [6]: 529 ± 80 nM
- IC50 [4, 14]: 78100 ± 5470 nM
- IC50 ([4]; MCF7, MCF-7): 139 nM
SMILES: C=C(C)C1C(=O)N(c2cc(OC)c(OC)c(OC)c2)C1c1ccc2ccccc2c1 (stereo not drawn) [9n, 4-Naphthalen-2-yl-1-(3,4,5-trimethoxyphenyl)-3-(prop-1-en-2-yl)azetidin-2-one]
- fold more potent than the 1-naphthyl compound 9m ([5]; MCF-7 IC50 ratio): 58 fold

- melting point: 139 to 140 °C
- IC50 [6]: 656 ± 130 nM
- IC50 [4, 13]: 210 ± 26 nM
SMILES: C=CCC1C(=O)N(c2cc(OC)c(OC)c(OC)c2)C1c1cccc2ccccc12 (stereo not drawn) [10m, 3-Allyl-4-naphthalen-1-yl-1-(3,4,5-trimethoxyphenyl)azetidin-2-one]
